Read-outs that look alike come from different tables or passages of the source. Numbered stars: 1 amine (or outer) side, 2 acyl side, 3 side chain; on linkers, the order of the positions; unused ones are H or OH. Bridge positions count the residues as written; N and C are the ends. Square brackets hold non-standard residues; d marks the D form. Peptide text beside a SMILES is read from it. I, II: the chains in the order shown. Actinocin(9to1) = Cc1c2oc3c(C)ccc(C(=O)[*:1])c3nc-2c(C(=O)[*:2])c(N)c1=O; NMeV = CN[C@H](C(=O)O)C(C)C; Sar = CNCC(=O)O
How the values were obtained:
Format in all cases: cell-based, human
[1] = tested on: THP-1 clone No. 63 (luciferase mRNA with IL-1β 3′UTR instability sequence, three tandem AUUUA motifs); assay: Luciferase reporter gene assay, clone No. 63 (pGL2_Neo30 with 30 bp IL-1β 3′UTR mRNA instability sequence); conditions: for Luciferase Activity (% of Control) Clone No. 63: compound 1 μM; for Luciferase Activity (% of Control) Clone No. 63 / Effect on mRNA stability in the assay (Table 3 summary): differentiated cells; for Effect on mRNA stability in the assay (Table 3 summary): clone 63 versus clone 53; for Luciferase Activity Clone 63 γIFN/LPS stimulated: γIFN/LPS stimulated cells, mean of three experiments; for inhibition at 1 µM: Homo sapiens, THP-1
Description: (§1) In order to obtain a vector for stable integration into THP-1 cells, a XhoI-SaII fragment of the neo resistant gene (expressing aminoglycoside 3′phosphotransferase) derived from pMC1neoPolyA (Stratagene) was subcloned into the SaII site of pGL2-Control (Promega). This resulting plasmid was called pGL2_Neo. A 30 bp fragment (containing three tandem AUUUA motifs and flanking IL-1β 3′UTR sequence) obtained by annealing two complementary synthetic oligonucleotides (see FIG. 2) was subcloned into pGL2_Neo using the PflMI restriction site. […] The lacZ gene was obtained from a HindIII/BamHI restriction digest of pSV-beta-Galactosidase (Promega) and subcloned into the HindIII/BamHI site of pGL2-Control (Promega).
(§2) THP-1 cells were then cotransfected with either pGL2_Neo and pGL2-β-galactosidase vectors (to generate control cell lines) or with pGL2_Neo30 and pGL2-β-galactosidase vectors by electroporation. 10^7 cells/ml in 1.3 mM KH2PO4, 7.36 mM Na2HPO4, 2.44 mM KCl, 124 mM NaCl, 5 mM glucose, 9.64 μM MgCl2 and 16 μM CaCl2 pH 7.2 were transfected with 20 μg of DNA in a Bio-Rad Gene Pulser (250V, 690 μF and indefinite resistance) using a 0.4 cm cuvette. Cells were subsequently cultured in RPMI medium containing 10% FBS, 2 mM L-Gln (L-glutamine), 50 μM 2-mercaptoethanol and 600 μg/ml of G418 (geneticin). After transfection of pGL2_Neo30 and pGL2_Neo into THP-1 cells, G418 resistant stable cell lines were obtained by selection with G418 and assayed for luciferase activity. Cotransfected cell lines were also assayed for β-galactosidase activity which can serve as an internal control (see Example 5 below). One cell line of each transfection was chosen for further analysis; the pGL2_Neo30/pGL2-β-galactosidase cell line was referred to as clone No. 63 and the pGL2_Neo/pGL2-β-galactosidase cell line as clone No. 53. No endogenous luciferase activity could be detected in normal THP-1 cells.
(§3) The transfected human monocytic leukaemia cell lines, clones No. 53 and 63 are grown in RPMI medium supplemented with 110 U/ml penicillin, 100 μg/ml streptomycin, 2 mM L-Gln and 2 g/l NaHCO3. Heat-treated FBS (5%) is added before use. The cells are grown to a density of 5×10^5/ml and induced to differentiate with 100 U/ml (final concentration) γIFN. Three hours later, 10 μl of LPS (5 μg/ml final concentration) is added. This time point is designated time 0. Compounds are added at various times after LPS addition as indicated.
(§4) In order to adapt the system to the use of 96 well plates, cells were grown in Packard flat bottom white polystyrene microplates (Cat. No. 6005180) in RPMI medium lacking phenol red (AMIMED). Cells were plated at 5×10^4/well. After treatment of the cells, luciferase was measured using the Packard Luc Lite system (Cat. No. 601691 1) according to the manufacturer's instructions in a final volume of 205 μl. Briefly, to a cell suspension of 5×10^5 cells/ml, γIFN (1000 U/ml, Boehringer Mannheim, No. 1050494) to a final concentration of 100 U/ml and 0.25% (v/v) Luc Lite Enhancer was added. After a 3 hour incubation LPS (50 μg/ml Sigma, L-8274) was added to give 5 μg/ml final concentration. The cells were then plated at 5×10^4/100 μl/well into flat bottom white polystyrene microplates (Packard, Cat. No. 6005180) and incubated for 16 hours. 5 μl of compound solution or control vehicle was then added and the cells were further incubated as indicated. 100 μl of luciferase substrate solution was added and the plates were covered with TopSeal-A press-on adhesive sealing film (Packard Cat. No. 6005185) before measuring luminescence with a Packard Top Count Scintillation Counter at 22° C. The luciferase signal was stable for at least 90 min.
(§5) The THP-1 cell lines, clone Nos. 63 and 53 are grown, differentiated with γIFN and stimulated with LPS identical to normal THP-1 cells. Radicicol analog A was added 16 hours after the addition of LPS and cell extracts were then taken 8 hours later or as indicated. […]

[2] = tested on: THP-1 control clone No. 53 (luciferase mRNA without instability sequence); assay: Luciferase reporter gene assay, control clone No. 53 (pGL2_Neo, no instability sequence); conditions: for Luciferase Activity (% of Control) Clone No. 53: compound 1 μM, differentiated cells; for Luciferase Activity Clone 53 γIFN/LPS stimulated: γIFN/LPS stimulated cells, mean of three experiments
Description: as §1, §2, §3, §4, §5

[3] = tested on: THP-1 clone 63 (pGL2-β-galactosidase, lacZ without mRNA instability sequences); assay: β-galactosidase internal control activity, clone 63; conditions: mean of three experiments; for β-galactosidase activity Clone 63 Unstimulated: unstimulated cells; for β-galactosidase activity Clone 63 γIFN/LPS stimulated: γIFN/LPS stimulated cells
Description: as §1, §2
(§6) In the previous examples, test compounds were assayed by comparing their activity in two separate cell lines (clone Nos. 53 and 63). However, clone 63 was cotransfected with two separate plasmids: one plasmid (pGL2_Neo30) contained the luciferase gene with the 30 bp instability sequence driven by the SV40 promoter and the other plasmid (pGL2-β-galactosidase, FIG. 3B) contained the lacZ gene driven by the SV40 promoter but contained no mRNA instability sequences. The β-galactosidase activity of this cell line should not be affected by exposure of the cells to compounds which promote mRNA instability via mRNA instability sequences. As a result, one should be able to screen for compounds having mRNA instability activity by simply comparing luciferase activity in unstimulated cells versus stimulated cells and comparing the β-galactosidase activity in these same cells. […]

[4] = tested on: THP-1 clone 53 (pGL2-β-galactosidase, lacZ without mRNA instability sequences); assay: β-galactosidase internal control activity, clone 53; conditions: mean of three experiments; for β-galactosidase activity Clone 53 Unstimulated: unstimulated cells; for β-galactosidase activity Clone 53 γIFN/LPS stimulated: γIFN/LPS stimulated cells
Description: as §1, §2, §6

[5] = tested on: IL-1β-AU cDNA derived RNA (3′ UTR AREs deleted) in THP-1 cells; assay: RNase protection analysis of IL-1β-AU (ARE-deleted) RNA in stably transfected THP-1 cells; conditions: THP-1 cells stably transfected with IL-1β-AU construct
Description: For examples 1-5, the segment of 3′ UTR of IL-1β which contains all the AREs was deleted and the resulting IL-1β-AU cDNA was subcloned into an expression vector.

[6] = tested on: THP-1 clone No. 63 (luciferase mRNA with IL-1β 3′UTR instability sequence, three tandem AUUUA motifs); assay: Luciferase reporter gene assay, clone No. 63 (pGL2_Neo30 with 30 bp IL-1β 3′UTR mRNA instability sequence); conditions: for Luciferase Activity Clone 63 Unstimulated: unstimulated cells, mean of three experiments
[7] = tested on: THP-1 control clone No. 53 (luciferase mRNA without instability sequence); assay: Luciferase reporter gene assay, control clone No. 53 (pGL2_Neo, no instability sequence); conditions: 10 μM; unstimulated cells; mean of three experiments
[8] = tested on: THP-1 clones No. 53 and 63 (luciferase); assay: Half life of luciferase mRNA and protein after addition of compounds, clones No. 53 and 63; conditions: after 8 hours level comparable to radicicol analog A (1 μM)
Description: To measure mRNA degradation using luciferase protein activity it is important to know the half life of the luciferase enzyme in order to determine an optimal time for assaying for potential mRNA destabilizing agents by way of luciferase protein stability. The possibility exists that mRNA could be degraded but due to a long half life of the protein, high enzyme activities could persist. Therefore we analyzed luciferase activities after addition of the transcriptional inhibitor actinomycin D (act. D) or the translational inhibitor cycloheximide (CHX). […] In view of this relatively short half life of the luciferase enzyme, it is safe to assess substances for activity on mRNA degradation as early as 8 hours after compound addition.

C=C(C/C=C/C(C)(C)O)[C@@H]1CC[C@]2(C)[C@@H]1CC[C@@H]1[C@@]3(C)CC[C@H](O)C(C)(C)[C@@H]3CC[C@]12C [(17α)-23-(E)-dammara-20,23-dien-3β,25-diol]
Luciferase Activity (% of Control) Clone No. 63 [1]: 91 % of Control
Luciferase Activity (% of Control) Clone No. 53 [2]: 116 % of Control

C[C@@H]1C[C@H]2[C@@H]3CCC4=CC(=O)C=C[C@]4(C)[C@@]3(F)[C@@H](O)C[C@]2(C)[C@@]1(O)C(=O)CO [Dexamethasone]
Luciferase Activity (% of Control) Clone No. 63 [1]: 63 % of Control
Luciferase Activity (% of Control) Clone No. 53 [2]: 72 % of Control

COc1cc(O)c2c(c1OC)/C=C/C[C@H](O)[C@H](O)C(=O)/C=C\C[C@H](C)OC2=O [Radicicol analog A, radicicol analog A]
Effect on mRNA stability in the assay (Table 3 summary) ([1]; 1 μM): clear effect on mRNA stability
Luciferase Activity Clone 63 γIFN/LPS stimulated ([1]; 1 μM): 7 % control
Luciferase Activity Clone 63 γIFN/LPS stimulated ([1]; 10 μM): 2 % control
inhibition at 1 µM ([1]; 1 μM, differentiated clone No. 63, 8 hours, read-out: Inhibition of luciferase activity, greatest in some cases): 93%
inhibition at 1 µM ([1]; 1 μM, differentiated clone No. 63, added 16 h after LPS, extracts 8 hours later, read-out: Inhibition of luciferase activity, on average): 50%
Luciferase Activity (% of Control) Clone No. 63 [1]: 49 % of Control
Concentration dependence of luciferase inhibition in differentiated clone No. 63 ([1]; differentiated clone No. 63, 8 hr. treatment (FIG. 8)): Concentration dependent inhibition of luciferase activity
Luciferase Activity Clone 53 γIFN/LPS stimulated ([2]; 1 μM): 88 % control
Luciferase Activity Clone 53 γIFN/LPS stimulated ([2]; 10 μM): 63 % control
Luciferase Activity (% of Control) Clone No. 53 [2]: 120 % of Control
Effect on control clone (No. 53) at high concentrations (cytotoxicity or inhibitory activity on transcription) ([2]; concentrations higher than 5×10^−6 M): also inhibited the control clone
Effect on luciferase activity of control clone No. 53 ([2]; up to 5×10^−6M): no effects
β-galactosidase activity Clone 63 Unstimulated ([3]; 1 μM): 96 % control
β-galactosidase activity Clone 63 γIFN/LPS stimulated ([3]; 1 μM): 97 % control
β-galactosidase activity Clone 63 Unstimulated ([3]; 10 μM): 84 % control
β-galactosidase activity Clone 63 γIFN/LPS stimulated ([3]; 10 μM): 70 % control
β-galactosidase activity Clone 53 Unstimulated ([4]; 1 μM): 99 % control
β-galactosidase activity Clone 53 γIFN/LPS stimulated ([4]; 1 μM): 98 % control
β-galactosidase activity Clone 53 Unstimulated ([4]; 10 μM): 103 % control
β-galactosidase activity Clone 53 γIFN/LPS stimulated ([4]; 10 μM): 62 % control
Response of AU-less derived RNA to compound (RNase protection) [5]: showed resistance
Reduction of luciferase activity in undifferentiated clone No. 63 ([6]; 1 μM, undifferentiated cells, 8 hr. treatment): only a limited reduction of luciferase activity
Luciferase Activity Clone 63 Unstimulated ([6]; 1 μM): 63 % control
Luciferase Activity Clone 63 Unstimulated ([6]; 10 μM): 11 % control
Luciferase Activity Clone 53 Unstimulated [7]: 87 % control

O=C1CCC(N2C(=O)c3ccccc3C2=O)C(=O)N1 (centres unmarked) [Thalidomide]
Luciferase Activity (% of Control) Clone No. 63 [1]: 112 % of Control
Luciferase Activity (% of Control) Clone No. 53 [2]: 98 % of Control

Cc1c2oc3c(C)ccc(C(=O)N[C@@H]4C(=O)N[C@H](C(C)C)C(=O)N5CCC[C@H]5C(=O)N(C)CC(=O)N(C)[C@@H](C(C)C)C(=O)O[C@@H]4C)c3nc-2c(C(=O)N[C@@H]2C(=O)N[C@H](C(C)C)C(=O)N3CCC[C@H]3C(=O)N(C)CC(=O)N(C)[C@@H](C(C)C)C(=O)O[C@@H]2C)c(N)c1=O [actinomycin D] (I: T[dV]P[Sar][NMeV] / II: T[dV]P[Sar][NMeV]; ester I:1-I:C, II:1-II:C; linker I:N-II:N via Actinocin(9to1))
Luciferase activities after addition of transcriptional inhibitor ([8]; 20 μg/ml): rapidly declined

C[C@@H]1C[C@@H]([C@H](O)CC2CC(=O)NC(=O)C2)C(=O)[C@@H](C)C1 [cycloheximide]
Luciferase activities after addition of translational inhibitor ([8]; 20 μM): rapidly declined

Radicicol
Effect on mRNA stability in the assay (Table 3 summary) ([1]; 1 μM): clear effect on mRNA stability
Luciferase Activity (% of Control) Clone No. 63 [1]: 47 % of Control
Luciferase Activity (% of Control) Clone No. 53 [2]: 98 % of Control

Stemphon
Luciferase Activity (% of Control) Clone No. 63 [1]: 90 % of Control
Luciferase Activity (% of Control) Clone No. 53 [2]: 95 % of Control

From patent US7598079B2, “Assay for identifying compounds which affect stability of mRNA” (Novation Pharmaceuticals, Inc., priority 1998, dated 2009)
